Molecules are shown by their SMILES. Entries after “also recorded” stand apart in the source; their conditions may differ.

The values that follow come from patent publication US8198098B2, “Optical measurement method for determining the pH of a medium using ageladine A as a fluorescent pH indicator” (Stiftung Alfred-Wegener-Institut fuer Polar-und …, priority 2007, dated 2012).

The conditions of data set [1]: detectable pH range of the fluorescent pH indicator; taken from probes.invitrogen.com handbook table; cited from earlier work.
Data set [2] has as its system PC-12 cells. As to the kind of experiment: staining of cells with ageladine A and measurement of intracellular pH. It counts as cell-based, rat. The note with it: PC-12 cells incubated with ageladine A, excitation 380 nm. The method, then: FIGS. 2A, 2B show images, at 400-times magnification, of cells (PC-12 cells, rat, deposited at DSMZ) incubated with ageladine A and stained by means of the same. Excitation took place using UV light with a wavelength of 380 nm.
The fluorescence ratio value (340 nm/380 nm) is plotted over time (time in s). The various pHs of the buffer solution are marked as parameters on the graph. It can clearly be recognized that the fluorescence emission follows the extracellular increase of the pH of the solution in a wide range (pH6.5 to pH3). The change of the intracellular pH is only a few tenths around pH7, as a result of which a very high measurement resolution of the pH indicator results.

For data set [3], the system named is shrimp (Palaemonetes argentinus). Kind of data set: in-vivo staining of a living organism with ageladine A. The text has this: The green curve (lowest straight curve) indicates fluorescence intensity values within the buffer solution outside of the shrimp, the red and blue curves (middle and upper curved curves) indicate fluorescence intensity values within the shrimp and thus, in a simple manner, easily recognizable and detectable acidic constituents of the shrimp.

A short description of data set [4]: fluorescence intensity of ageladine A as a function of the pH of the solution. The data set is classed as physicochemical. An excerpt: The optical measurement method according to an embodiment of the present invention includes an alternative fluorescent pH indicator based on ageladine A. Ageladine A is a known natural marine substance in the form of a pyrrole-imidazole alkaloid which has heretofore been used exclusively for medical purposes. Ageladine A can be obtained both from marine sponges and produced synthetically. It is therefore readily possible, by means of the total syntheses described, to prepare large quantities of ageladine A without having to have recourse to marine sponges. […] When using ageladine A as a fluorescent pH indicator, pH changes of the medium to be investigated between pH4 and pH9 can be reliably optically indicated by means of a changeable fluorescence intensity in such a manner that the emitted fluorescence intensity increases as the pH falls. […] Advantageously, samples that have been taken (in vitro), but also living cells, tissue and entire organisms (in vivo) can be incubated with ageladine A as fluorescent pH indicator and stained in this manner by means of the fluorescence in the green range. This enables measurements of the pH in vivo and in vitro in a wide range and thus the detection of acidic tissue in organisms due to its fluorescence properties. The fluorescence in the green range increases markedly as the pH falls. […] The fluorescence intensity was measured at 510 nm. […]

Turning to `O=S(=O)([O-])c1cc(O)c2ccc3c(S(=O)(=O)[O-])cc(S(=O)(=O)[O-])c4ccc1c2c34.[Na+].[Na+].[Na+]` [HPTS (pyranine), pyranine], the “PH RANGE” value in data set [1] was 7.0-8.0.
Take `Nc1nc2ccnc(-c3cc(Br)c(Br)[nH]3)c2[nH]1` [ageladine A]: in data set [2], the staining of cells entry is “stained”. The penetration into tissue result in data set [3] (intact, living organisms, on account of lipophilic structure (bromination)) was “penetrates very quickly and far into the tissue”. For the same compound, the “in-vivo staining of tissue” value in data set [3] (shrimp incubated with ageladine A, irradiated with UV light) is recorded as “acidic structures (mouth-digestive region) in the shrimp were stained”. Besides, the “stability of the stainings” value in data set [4] (cells, tissue, organisms incubated with ageladine A) is reported as “stable over hours to days; also recorded: last for at least a plurality of days”. Also, in data set [4] (despite UV irradiation), the “stability of fluorescence under UV irradiation” value is listed as “stable for hours”.
For `O=c1c2cccc3c(NCCN4CCOCC4)ccc(c32)c2nc3ccccc3n12` [LysoSensor Green DND-189], the “PH RANGE” value in data set [1] is listed as 4.5-6.0.
